Like-named read-outs stand apart in the source and are kept apart here.
Key:
NRF2 [1] = assay: qPCR analysis of NRF2-regulated genes; assay type: cell-based, human; settings: for fold induction at 10 µM: Homo sapiens
Method in brief: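 Expression of HMOX1, NQO1, GCLC and GSTM1 measured by qPCR relative to B2M, PPIA and GAPDH. Cells were WI-38 fibroblasts exposed 24 hrs to 10 μM compound, with RNA and cDNA prepared via Cells-to-Ct. Where stated, cells were first transfected 36 hrs with FOXO3 or NRF2 siRNA at 10 nM.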

NRF2 [2] = assay: in vitro; assay type: cell-based, human
mTOR = mTOR inhibition (RPS6 phosphorylation status), In-Cell Western; assay type: cell-based, human
Method in brief: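 Read-out is In-Cell Western near-infrared imaging of phospho-RPS6 (Ser-235/236) against total RPS6, using overnight 4° C primary staining and DyLight 680/800 secondaries. Compounds were given to WI-38 cells for 24 hrs at three doses: 5, 10 and 20 μM.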

[3] = test system: PC12 cells expressing poly(Q)103-Htt-EGFP; assay: Poly(Q) toxicity & viability analysis (cellular model of Huntington's disease); assay type: cell-based, rat; settings: for M = Huntington's poly-Q toxicity attenuation: score; for K = Huntington's poly-Q toxicity attenuation: summary score
Method in brief: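 Readout is CellTiter-Glo ATP content measured after 48 hrs. Cells are a PC12 line stably expressing inducible poly(Q)103-Htt-EGFP, where induction produces toxic aggregates.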

WI-38 cells = settings: for No H2O2 stress treatment, at 10 uM (fold change): normalized ATP measurement; for Assay 1: H2O2-resistant: YES/NO, if NO, possibly due to repeated freezing/thawing of stocks
[4] = WI-38 cells, 10 μM, 24 hrs, n=4, qPCR normalized by B2M, read-out: GCLC Normalized fold change
[5] = WI-38 cells, 10 μM, 24 hrs, n=4, qPCR normalized by B2M, read-out: GSTM1 Normalized fold change
[6] = WI-38 cells, 10 μM, 24 hrs, n=4, qPCR normalized by B2M, read-out: HMOX1 Normalized fold change
[7] = WI-38 cells, 10 μM, 24 hrs, n=4, qPCR normalized by B2M, read-out: NQO1 Normalized fold change
[8] = 10 uM, with H2O2, NRF2 knockdown in WI-38 cells, YES = resistance reduced by at least 50%, partial = 25% to 50%
[9] = WI-38 cells, 10 μM, (*) = compromised ability to protect cells from H2O2, could be due to stability issue
[10] = asterisks indicate the loss of the ability to protect cells from H2O2 over time
[11] = derived from dose response curves, 0.6-20 uM, H2O2-resistance of WI-38 cells
[12] = read-out: Est. ED50, dose response 0.6-20 μM, H2O2-resistance

Compound | F = Potential NRF2 Activation (NRF2 [1]; 2-point score) | fold induction at 10 µM (NRF2 [1]; [4]) | fold induction at 10 µM (NRF2 [1]; [5]) | fold induction at 10 µM (NRF2 [1]; [6]) | fold induction at 10 µM (NRF2 [1]; [7]) | F = Potential NRF2 Activation (NRF2 [1]; summary score) | J = NRF2-dependency for H2O2-resistance (NRF2 [2]; score) | J = NRF2-dependency for H2O2-resistance (NRF2 [2]; summary score) | G = mTOR down-regulation (mTOR; 2-point score) | G = mTOR down-regulation (mTOR; summary score) | M = Huntington's poly-Q toxicity attenuation [3] | K = Huntington's poly-Q toxicity attenuation [3] | H2O2-resistant (WI-38 cells; [9]) | No H2O2 stress treatment, at 10 uM (fold change) (WI-38 cells; WI-38 cells) | Assay 1: H2O2-resistant (WI-38 cells) | H2O2-resistant (WI-38 cells; [10]) | EC50 (WI-38 cells; [11]) [µM] | EC50 (WI-38 cells; [12]) [µM] | other results
O=C1NCCCc2cc(Cl)sc21 [O1] | 0 | 1.21 | 1.09 | 1.25 | 1.08 | 0 | 1 | 1 | 0 | 0 | 0 | 0 | YES | 0.92 | YES | YES | 13.2 | 13.2 | NRF2-dependency for H2O2-resistance, at 10 uM - with H2O2, 1st experiment (NRF2 [2]; 10 uM, experiment 1 (1st), with H2O2): 1st, partial;; NRF2-dependency for H2O2-resistance, at 10 uM - with H2O2, 2nd experiment (NRF2 [2]; 10 uM, experiment 2 (2nd), with H2O2): 2nd, partial.; NRF2-dependency for H2O2-resistance, 1st experiment (NRF2 [2]; [8]): partial;; NRF2-dependency for H2O2-resistance, 2nd experiment (NRF2 [2]; [8]): partial.; Assay 17: NRF2-dependency for H2O2-resistance (NRF2 [2]; 10 uM, YES/NO): YES; NRF2-dependency of H2O2-resistance (NRF2 siRNA knockdown) (NRF2 [2]; at least 2 of 3 independent experiments): significantly attenuate
CC1C(=O)C(C)C(c2cc(Cl)ccc2O)NC1c1cc(Cl)ccc1O (centres unmarked) [O6] | 2 | 1.06 | 0.965 | 3.85 | 1.62 | 2 | 0 | 0 | 0 | 0 | 0 | 0 | YES | 1.07 | YES | YES | 9.8 | 9.8 | Potential NRF2 Activation (>=2 target genes induced, by >=1.5-fold) (NRF2 [1]; Assay 13(p)): YES; fold induction at 10 µM (NRF2 [1]; 24 h, Assay 12(o), at 10 uM, qPCR, read-out: Induction of NRF2-regulated genes: HMOX1 normalized fold-change): 3.85; fold induction at 10 µM (NRF2 [1]; 24 h, Assay 12(o), at 10 uM, qPCR, read-out: Induction of NRF2-regulated genes: NQO1 normalized fold-change): 1.62; fold induction at 10 µM (NRF2 [1]; rounded fold change, WI-38 cells, 10 μM, 24 hrs (RP11 for Gr-1D, RP29 for Gr-4D), read-out: Summary of effects on NRF2-regulated genes: HMOX1): 3.85; fold induction at 10 µM (NRF2 [1]; rounded fold change, WI-38 cells, 10 μM, 24 hrs (RP29 for Gr-4D), read-out: Summary of effects on NRF2-regulated genes: NQO1): 1.62; fold induction at 10 µM (NRF2 [1]; 10 μM, 24 hrs, WI-38, read-out: Expression of at least two NRF2 target genes): > 1.5; fold induction at 10 µM (NRF2 [1]; 10 μM, 24 hrs, WI-38 cells, qPCR, normalized to B2M, n = 4, read-out: HMOX1 expression, normalized fold change (NRF2-regulated gene)): 3.85; fold induction at 10 µM (NRF2 [1]; 10 μM, 24 hrs, WI-38 cells, qPCR, normalized to B2M, n = 4, read-out: NQO1 expression, normalized fold change (NRF2-regulated gene)): 1.62
O=C(Nc1nc(C23CC4CC(CC(C4)C2)C3)cs1)C(c1ccccc1)c1ccccc1 [O10] | 0 | 0.933 | 1.03 | 0.755 | 0.937 | 0 | 0 | 0 | 0 | 0 | 0 | 0 | YES | 1.08 | YES | YES | 9.5 | 9.5 | –

— patent US11413278B2, “Compounds and methods for promoting stress resistance” (priority 2015, dated 2022)
